“And” between values parts separate entries of the source, which are not always exact repeats. Equal entries are not always repeated.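 Five concentrations, 48 hours, 96-well plates. GI50 = concentration required for 50% inhibition of growth. TGI marks complete inhibition of growth.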
Columns and labels:
Test in all cases: growth of human tumour cells (NCI), 48 h
786-0 renal = tested on: 786-0 renal
A498 renal = tested on: A498 renal
A549 NSCLC = tested on: A549 NSCLC
ACHN renal = tested on: ACHN renal
BT-549 breast = tested on: BT-549 breast
CAKI-1 renal = tested on: CAKI-1 renal
CCRF-CEM leukemia = tested on: CCRF-CEM leukemia
COLO 205 colon = tested on: COLO 205 colon
DU-145 prostate = tested on: DU-145 prostate
EKVX NSCLC = tested on: EKVX NSCLC
HCT-116 colon = tested on: HCT-116 colon
HCT-15 colon = tested on: HCT-15 colon
HL-60(TB) leukemia = tested on: HL-60(TB) leukemia
HOP-62 NSCLC = tested on: HOP-62 NSCLC
HOP-92 NSCLC = tested on: HOP-92 NSCLC
HT29 colon = tested on: HT29 colon
K-562 leukemia = tested on: K-562 leukemia
KM12 colon = tested on: KM12 colon
LOX IMVI melanoma = tested on: LOX IMVI melanoma
M14 melanoma = tested on: M14 melanoma
MALME-3M melanoma = tested on: MALME-3M melanoma
MDA-MB-231 breast = tested on: MDA-MB-231 breast
MDA-MB-435 = tested on: MDA-MB-435
MDA-N = tested on: MDA-N
MOLT-4 leukemia = tested on: MOLT-4 leukemia
NCI-H226 lung = tested on: NCI-H226 lung
NCI-H23 lung = tested on: NCI-H23 lung
NCI-H460 lung = tested on: NCI-H460 lung
NCI-H522 lung = tested on: NCI-H522 lung
NCI/ADR-RES ovarian = tested on: NCI/ADR-RES ovarian
OVCAR-3 ovarian = tested on: OVCAR-3 ovarian
OVCAR-4 ovarian = tested on: OVCAR-4 ovarian
OVCAR-5 ovarian = tested on: OVCAR-5 ovarian
OVCAR-8 ovarian = tested on: OVCAR-8 ovarian
PC-3 prostate = tested on: PC-3 prostate
RPMI-8226 leukemia = tested on: RPMI-8226 leukemia
SF-268 CNS = tested on: SF-268 CNS
SF-295 CNS = tested on: SF-295 CNS
SF-539 CNS = tested on: SF-539 CNS
SK-MEL-2 melanoma = tested on: SK-MEL-2 melanoma
SK-MEL-28 melanoma = tested on: SK-MEL-28 melanoma
SK-MEL-5 melanoma = tested on: SK-MEL-5 melanoma
SK-OV-3 ovarian = tested on: SK-OV-3 ovarian
SN12C renal = tested on: SN12C renal
SNB-19 CNS = tested on: SNB-19 CNS
SNB-75 CNS = tested on: SNB-75 CNS
SW-620 colon = tested on: SW-620 colon
T-47D breast = tested on: T-47D breast
TK-10 renal = tested on: TK-10 renal
U251 CNS = tested on: U251 CNS
UACC-257 melanoma = tested on: UACC-257 melanoma
UACC-62 melanoma = tested on: UACC-62 melanoma
UO-31 renal = tested on: UO-31 renal
HCC-2998 colon = tested on: HCC-2998 colon
MCF7 breast = tested on: MCF7 breast
RXF 393 renal = tested on: RXF 393 renal

## Cc1cc(-c2c(Br)cc(C(=O)O)n2C)on1
786-0 renal
  TGI: > 100 µM
A498 renal
  TGI: > 100 µM
A549 NSCLC
  TGI: > 100 µM
ACHN renal
  TGI: > 100 µM
BT-549 breast
  TGI: > 100 µM
CAKI-1 renal
  TGI: > 100 µM
CCRF-CEM leukemia
  TGI: > 100 µM
COLO 205 colon
  TGI: > 100 µM
DU-145 prostate
  TGI: > 100 µM
EKVX NSCLC
  TGI: > 100 µM
HCT-116 colon
  TGI: > 100 µM
HCT-15 colon
  TGI: > 100 µM
HL-60(TB) leukemia
  TGI: > 100 µM
HOP-62 NSCLC
  TGI: > 100 µM
HOP-92 NSCLC
  TGI: > 100 µM
HT29 colon
  TGI: > 100 µM
K-562 leukemia
  TGI: > 100 µM
KM12 colon
  TGI: > 100 µM
LOX IMVI melanoma
  TGI: > 100 µM
M14 melanoma
  TGI: > 100 µM
MALME-3M melanoma
  TGI: > 100 µM
MDA-MB-231 breast
  TGI: > 100 µM
MDA-MB-435
  TGI: > 100 µM
MDA-N
  TGI: > 100 µM
MOLT-4 leukemia
  TGI: > 100 µM
NCI-H226 lung
  TGI: > 100 µM
NCI-H23 lung
  TGI: > 100 µM
NCI-H460 lung
  TGI: > 100 µM
NCI-H522 lung
  TGI: > 100 µM
NCI/ADR-RES ovarian
  TGI: > 100 µM
OVCAR-3 ovarian
  TGI: > 100 µM
OVCAR-4 ovarian
  TGI: > 100 µM
OVCAR-5 ovarian
  TGI: > 100 µM
OVCAR-8 ovarian
  TGI: > 100 µM
PC-3 prostate
  TGI: > 100 µM
RPMI-8226 leukemia
  TGI: > 100 µM
SF-268 CNS
  TGI: > 100 µM
SF-295 CNS
  TGI: > 100 µM
SF-539 CNS
  TGI: > 100 µM
SK-MEL-2 melanoma
  TGI: > 100 µM
SK-MEL-28 melanoma
  TGI: > 100 µM
SK-MEL-5 melanoma
  TGI: > 100 µM
SK-OV-3 ovarian
  TGI: > 100 µM
SN12C renal
  TGI: > 100 µM
SNB-19 CNS
  TGI: > 100 µM
SNB-75 CNS
  TGI: > 100 µM
SW-620 colon
  TGI: > 100 µM
T-47D breast
  TGI: > 100 µM
TK-10 renal
  TGI: > 100 µM
U251 CNS
  TGI: > 100 µM
UACC-257 melanoma
  TGI: > 100 µM
UACC-62 melanoma
  TGI: > 100 µM
UO-31 renal
  TGI: > 100 µM

## CCCCCCCCCCCC[C@H](O)[C@H]1CC[C@H]([C@H](O)CCCC[C@H](O)CCCCC[C@@H](O)CC2=C[C@H](C)OC2=O)O1
786-0 renal
  GI50: 18.5 µM
  TGI: 34.5 µM
A549 NSCLC
  GI50: 12.4 µM
  TGI: 28.5 µM
ACHN renal
  GI50: 11.2 µM
  TGI: 5.5 µM and 23.8 µM
BT-549 breast
  GI50: 12.7 µM
CAKI-1 renal
  GI50: 17.5 µM
  TGI: 36.4 µM
CCRF-CEM leukemia
  GI50: 5.62 µM
  TGI: 27.3 µM
COLO 205 colon
  GI50: 16.4 µM
  TGI: 32.7 µM
EKVX NSCLC
  GI50: 2.5 µM
  TGI: 10.9 µM
HCC-2998 colon
  TGI: 33.9 µM
HCT-116 colon
  GI50: 0.636 µM
  TGI: 22.7 µM
HCT-15 colon
  GI50: 18.7 µM
  TGI: 57.8 µM
HL-60(TB) leukemia
  TGI: 8.05 µM
HOP-62 NSCLC
  GI50: 17.5 µM
  TGI: 31.8 µM
HOP-92 NSCLC
  GI50: 23.7 µM
  TGI: 52.9 µM
K-562 leukemia
  GI50: 0.0621 µM
  TGI: 26.9 µM
KM12 colon
  GI50: 16.9 µM
  TGI: 35.9 µM
LOX IMVI melanoma
  GI50: 2.19 µM
  TGI: 3.72 µM and 22.9 µM
M14 melanoma
  GI50: 14.2 µM
  TGI: 27.4 µM
MALME-3M melanoma
  TGI: 32.2 µM
MCF7 breast
  GI50: 10.9 µM
  TGI: 25.4 µM
MDA-MB-231 breast
  GI50: 16.2 µM
  TGI: 40.9 µM
MDA-MB-435
  GI50: 15.6 µM
  TGI: 8.48 µM and 38.8 µM
MDA-N
  GI50: 14.3 µM
  TGI: 30.5 µM
MOLT-4 leukemia
  GI50: 3.67 µM
  TGI: 24.9 µM
NCI-H226 lung
  GI50: 17.4 µM
  TGI: 43.3 µM
NCI-H23 lung
  GI50: 0.46 µM
  TGI: 22.2 µM
NCI-H460 lung
  GI50: 0.986 µM
  TGI: 22.9 µM
NCI-H522 lung
  TGI: 19.7 µM
NCI/ADR-RES ovarian
  GI50: 14.5 µM
  TGI: 34.4 µM
OVCAR-3 ovarian
  GI50: 17.2 µM
  TGI: 9.34 µM and 32.4 µM
OVCAR-4 ovarian
  TGI: 36.1 µM
OVCAR-5 ovarian
  TGI: 31.7 µM
PC-3 prostate
  GI50: 16.2 µM
  TGI: 29.8 µM
RXF 393 renal
  TGI: 33.2 µM
SF-268 CNS
  GI50: 17 µM
  TGI: 40.3 µM
SF-295 CNS
  GI50: 3 µM
  TGI: 20.1 µM
SF-539 CNS
  TGI: 29.5 µM
SK-MEL-2 melanoma
  GI50: 19.9 µM
  TGI: 36.2 µM
SK-MEL-28 melanoma
  GI50: 20 µM
  TGI: 41.2 µM
SK-MEL-5 melanoma
  GI50: 0.0602 µM
  TGI: 15.6 µM
SN12C renal
  GI50: 17.8 µM
  TGI: 38.8 µM
SNB-19 CNS
  GI50: 13.3 µM
  TGI: 27.7 µM
SNB-75 CNS
  GI50: 16.3 µM
  TGI: 31.7 µM
SW-620 colon
  GI50: 21.6 µM
  TGI: 64 µM
T-47D breast
  GI50: 2.82 µM
  TGI: 21.6 µM
TK-10 renal
  GI50: 13.1 µM
  TGI: 26.8 µM
U251 CNS
  TGI: > 100 µM
UACC-257 melanoma
  GI50: 1.69 µM
  TGI: 5.81 µM and 19 µM
UACC-62 melanoma
  TGI: 7.17 µM
UO-31 renal
  GI50: 14.6 µM
  TGI: 7.44 µM and 28.8 µM
